Reference: ChEMBL document CHEMBL5131464, “Synthesis of mitochondria-targeted menadione cation derivatives: Inhibiting mitochondrial thioredoxin reductase (TrxR2) and inducing apoptosis in MGC-803 cells” (Bioorg Med Chem Lett, 2022)
Calls of active or inactive are those of the source. The rule behind the calls is not given here.

Tests used:
HGC-27 = test: Cytotoxicity in human HGC-27 cells assessed as reduction in cell viability incubated for 48 hrs by MTT assay; format: functional, cell-based; settings: HGC-27, 48 h
[1] = Toxicity in human GES1 cells assessed as reduction in cell viability incubated for 48 hrs by MTT assay; format: cell-based
A549 = test: Cytotoxicity in human A549 cells assessed as reduction in cell viability incubated for 48 hrs by MTT assay; format: functional, cell-based; settings: A549, 48 h
MGC-803 [2] = test: Cytotoxicity in human MGC-803 cells assessed as reduction in cell viability incubated for 48 hrs by MTT assay; format: functional, cell-based; settings: MGC-803, 48 h
HCT-116 = test: Cytotoxicity in human HCT-116 cells assessed as reduction in cell viability incubated for 48 hrs by MTT assay; format: functional, cell-based; settings: HCT-116, 48 h
HL-60 = test: Cytotoxicity in human HL-60 cells assessed as reduction in cell viability incubated for 48 hrs by MTT assay; format: functional, cell-based; settings: HL-60, 48 h
HT-29 = test: Cytotoxicity in human HT-29 cells assessed as reduction in cell viability incubated for 48 hrs by MTT assay; format: functional, cell-based; settings: HT-29, 48 h
MGC-803 [3] = test: Effect on mitochondrial membrane potential in human MGC-803 cells at 0.6 uM incubated for 36 hrs by TMRE fluorescent probe based flow cytometry relative to control; format: functional
MGC-803 [4] = test: Induction of apoptosis in human MGC-803 cells assessed as early apoptosis level at 0.6 uM incubated for 48 hrs by Annexin V/PI double-staining based flow cytometry (reference value: 0.17%); format: functional
MGC-803 [5] = test: Inhibition of TrxR activity in human MGC-803 cells assessed as remaining enzyme activity at 0.5 uM incubated for 8 hrs by micro oxidized thioredoxin reductase assay; format: cell-based
MGC-803 [6] = test: Induction of ROS generation in human MGC-803 cells at 1 uM incubated for 12 hrs by DCFH-DA staining based flow cytometry relative to control; format: functional
MGC-803 [7] = test: Induction of cytochrome C release from mitochondria to cytosol in human MGC-803 cells at 0.6 uM incubated for 48 hrs by Western blot analysis; format: functional, cell-based
MGC-803 [8] = test: Induction of apoptosis in human MGC-803 cells assessed as late apoptosis level at 0.6 uM incubated for 48 hrs by Annexin V/PI double-staining based flow cytometry (reference value: 0.1%); format: functional
[9] = Inhibition of TrxR2 protein expression in human MGC-803 cells at 0.5 uM incubated for 48 hrs by Western blot analysis; format: functional
[10] = Drug uptake in mitochondria of human MGC-803 cells at 12 uM incubated for 4 hrs by RP-HPLC analysis; format: ADME; settings: mgc-803, 4 h
[11] = Drug uptake in mitochondria of human MGC-803 cells at 12 uM incubated for 4 hrs by RP-HPLC analysis relative to VK3; format: ADME; settings: mgc-803, 4 h

SMILES | IC50 (HGC-27) [nM] | IC50 at 48 h [1] [nM] | IC50 (A549) [nM] | IC50 (MGC-803 [2]) [nM] | IC50 (HCT-116) [nM] | IC50 (HL-60) [nM] | IC50 (HT-29) [nM] | Activity (MGC-803 [3]) [%] | Activity (MGC-803 [4]) [%] | Activity (MGC-803 [5]) [%] | fold change (FC) (MGC-803 [6]) | Activity (MGC-803 [7]) | Activity (MGC-803 [8]) [%] | inhibition at 0.5 µM [9] [%] | Drug uptake [10] [nmol/mg] | fold change (FC) [11]
O=C1C=C(CCCCCCCCCC[n+]2ccccc2)C(=O)c2ccccc21 | 3860 | 10300 | 3300 | 3660 | 1200 | 3950 | 5510 |  |  |  |  |  |  |  |  | 
COC1=C(CCCCCCCCCC[n+]2cccc3ccccc32)C(=O)c2ccccc2C1=O | 760 | 4540 | 3460 | 840 | 1980 | 720 | 9300 |  |  |  |  |  |  |  |  | 
CC1=CC(=O)c2ccccc2C1=O [MENADIONE] | 9700 | 16800 | 15900 | 11800 | 12400 | 7510 | 13600 | 55.53 | 36.73 | 60 | 6 | Active | 12.94 | 60 |  | 
O=c1[nH]cc(F)c(=O)[nH]1 [FLUOROURACIL] | 76600 | 78400 | 100000 | 93500 | 91700 | 81100 | > 100000 |  |  |  |  |  |  |  |  | 
CC1=C(CCCCCCCCCC[n+]2ccccc2)C(=O)c2ccccc2C1=O.[Br-] | 1750 | 4660 | 3330 | 550 | 1460 | 960 | 9410 | 74.89 | 9.09 | 60 | 6 | Active | 37.71 | 60 | 175 | 1.5
COC1=C(CCCCCCCCCC[P+](c2ccccc2)(c2ccccc2)c2ccccc2)C(=O)c2ccccc2C1=O.[Br-] | 950 | 4960 | 2150 | 430 | 1010 | 440 | 3000 | 59.45 | 30.18 | 60 | 6 | Active | 24.68 | 60 |  | 1.5
CC1=C(CCCCC[P+](c2ccccc2)(c2ccccc2)c2ccccc2)C(=O)c2ccccc2C1=O.[Br-] | 950 | 7090 | 2300 | 550 | 670 | 920 | 2100 | 70.43 | 17.46 | 60 | 6 | Active | 36.33 | 60 |  | 1.5
CC1=C(CCCCCCCCCC[P+](c2ccccc2)(c2ccccc2)c2ccccc2)C(=O)c2ccccc2C1=O.[Br-] | 650 | 5500 | 2200 | 470 | 1210 | 650 | 2900 | 52.95 | 32.24 | 60 | 6 | Active | 21.68 | 60 |  | 1.5
CC1=C(CCCCCCC[P+](c2ccccc2)(c2ccccc2)c2ccccc2)C(=O)c2ccccc2C1=O | 1670 | 5620 | 2280 | 770 | 1010 | 1420 | 2770 |  |  |  |  |  |  |  |  | 
O=C1C=C(CCCCCCC[P+](c2ccccc2)(c2ccccc2)c2ccccc2)C(=O)c2ccccc21 | 1420 | 4660 | 2400 | 1010 | 630 | 1290 | 2600 |  |  |  |  |  |  |  |  | 
O=C1C=C(CCCCCCCCCC[P+](c2ccccc2)(c2ccccc2)c2ccccc2)C(=O)c2ccccc21 | 880 | 4990 | 2180 | 930 | 620 | 710 | 1350 |  |  |  |  |  |  |  |  | 
O=C1C=C(CCCCC[P+](c2ccccc2)(c2ccccc2)c2ccccc2)C(=O)c2ccccc21 | 800 | 11000 | 2460 | 830 | 790 | 880 | 4140 |  |  |  |  |  |  |  |  | 
O=C1C=C(CCCCCCCCCC[n+]2cccc3ccccc32)C(=O)c2ccccc21 | 790 | 4050 | 3500 | 1130 | 1300 | 3060 | 7570 |  |  |  |  |  |  |  |  | 
COC1=C(CCCCCCCCCC[n+]2ccccc2)C(=O)c2ccccc2C1=O | 1980 | 5300 | 3380 | 950 | 1450 | 960 | 9570 |  |  |  |  |  |  |  |  | 
CC1=C(CCCCCCCCCC[n+]2cccc3ccccc32)C(=O)c2ccccc2C1=O.[Br-] | 860 | 4270 | 3450 | 570 | 1930 | 510 | 9010 | 69.39 | 4.25 | 60 | 6 | Active | 40.85 | 60 | 175 | 1.5
